From PubChem BioAssay (NCI)
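Exposure lasted 48 hours, with cells grown in 96-well plates and compounds tested at five concentrations. At the TGI there is no net growth.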

Key:
Assay in all cases: NCI tumour cell line growth inhibition, 48 h
[1] = tested on: OVCAR-3 ovarian
[2] = tested on: HCT-15 colon
[3] = tested on: UACC-62 melanoma
[4] = tested on: SN12C renal
[5] = tested on: HOP-92 NSCLC
[6] = tested on: SK-MEL-2 melanoma
[7] = tested on: 786-0 renal
[8] = tested on: SNB-75 CNS
[9] = tested on: LOX IMVI melanoma
[10] = tested on: EKVX NSCLC
[11] = tested on: TK-10 renal
[12] = tested on: A549 NSCLC
[13] = tested on: NCI-H522 lung
[14] = tested on: SK-MEL-5 melanoma
[15] = tested on: OVCAR-4 ovarian
[16] = tested on: U251 CNS
[17] = tested on: MALME-3M melanoma
[18] = tested on: MDA-MB-231 breast
[19] = tested on: MDA-N
[20] = tested on: SF-268 CNS
[21] = tested on: NCI-H460 lung
[22] = tested on: A498 renal
[23] = tested on: SF-295 CNS
[24] = tested on: SR leukemia
[25] = tested on: MDA-MB-435
[26] = tested on: OVCAR-8 ovarian
[27] = tested on: SK-MEL-28 melanoma
[28] = tested on: KM12 colon
[29] = tested on: DU-145 prostate
[30] = tested on: K-562 leukemia
[31] = tested on: RPMI-8226 leukemia
[32] = tested on: MCF7 breast
[33] = tested on: OVCAR-5 ovarian
[34] = tested on: UACC-257 melanoma
[35] = tested on: NCI-H226 lung
[36] = tested on: T-47D breast
[37] = tested on: PC-3 prostate
[38] = tested on: HT29 colon
[39] = tested on: ACHN renal
[40] = tested on: UO-31 renal
[41] = tested on: NCI/ADR-RES ovarian
[42] = tested on: CCRF-CEM leukemia
[43] = tested on: RXF 393 renal
[44] = tested on: HOP-62 NSCLC
[45] = tested on: SW-620 colon
[46] = tested on: SK-OV-3 ovarian
[47] = tested on: HL-60(TB) leukemia
[48] = tested on: M14 melanoma
[49] = tested on: COLO 205 colon
[50] = tested on: IGROV1 ovarian
[51] = tested on: SNB-19 CNS
[52] = tested on: MOLT-4 leukemia
[53] = tested on: HCT-116 colon
[54] = tested on: NCI-H23 lung
[55] = tested on: HS 578T breast
[56] = tested on: BT-549 breast
[57] = tested on: CAKI-1 renal
[58] = tested on: SF-539 CNS

Cc1cc(C)c2c(=O)cc(-c3ccccc3)[nH]c2c1
TGI [1]: 25.6 µM
TGI [2]: > 67.1 µM
TGI [3]: 28.7 µM
TGI [4]: > 65.3 µM
TGI [5]: 59.5 µM
TGI [6]: 55.9 µM
TGI [7]: 11.4 µM
TGI [8]: 19.3 µM
TGI [9]: 41.2 µM
TGI [10]: 42.8 µM
TGI [11]: 22.8 µM
TGI [12]: 29.1 µM
TGI [13]: 7.29 µM
TGI [14]: 30.6 µM
TGI [15]: 31 µM
TGI [16]: 18 µM
TGI [17]: > 80.4 µM
TGI [18]: 39.7 µM
TGI [19]: 3.17 µM
TGI [20]: 46.7 µM
TGI [21]: 31.2 µM
TGI [22]: 10.5 µM
TGI [23]: 17.9 µM
TGI [24]: > 100 µM
TGI [25]: 41.6 µM
TGI [26]: 46.9 µM
TGI [27]: 35.3 µM
TGI [28]: 22.1 µM
TGI [29]: 98.4 µM
TGI [30]: > 100 µM
TGI [31]: 22.8 µM
TGI [32]: 22.2 µM
TGI [33]: > 92.3 µM
TGI [34]: > 100 µM
TGI [35]: 48.9 µM
TGI [36]: > 76.2 µM
TGI [37]: > 93.2 µM
TGI [38]: 27.1 µM
TGI [39]: 23.5 µM
TGI [40]: 27.8 µM
TGI [41]: 34.3 µM
TGI [42]: > 100 µM
TGI [43]: 5.11 µM
TGI [44]: 23.7 µM
TGI [45]: > 100 µM
TGI [46]: 15.7 µM
TGI [47]: 4.71 µM
TGI [48]: > 82.4 µM
TGI [49]: > 52 µM
TGI [50]: 35.4 µM
TGI [51]: > 100 µM
TGI [52]: > 100 µM
TGI [53]: 15.8 µM
TGI [54]: 16.5 µM
TGI [55]: 21.2 µM
TGI [56]: 54.2 µM
TGI [57]: > 47.2 µM
TGI [58]: 8.11 µM
